Here are results for one molecule from US20120122870A1, “Treatment Of Ischemia-Reperfusion Injury” (MUSC FOUNDATION FOR RESEARCH DEVELOPMENT, priority 2009, published 2012).

“Also recorded” adds a separate entry of the source.

Test [1] relates to SK expression in the liver. Nature of the test: SK immunohistochemistry in liver after hepatic warm IR. The settings on record: 50 mg/kg gavage 1 h prior to surgery; 1 h-ischemia plus 6 h-reperfusion. In kind it is in vivo, mice. The method, then:
Warm IR upregulates SK in the liver. IR injury to the liver occurs in LT. Since SK is associated with inflammatory processes, we investigated whether IR affects SK expression in the liver. Male C57BL/6 mice (8-9 weeks) were gavaged with ABC294640 (ABC, 50 mg/kg) or an equal volume of vehicle (0.375% Tween-80 in phosphate buffer) 1 h prior to surgery. Under ether anesthesia, hepatic ischemia was induced by clamping the hepatic artery and portal vein to the upper three lobes of the liver (i.e., about 70% of total liver). One hour later, the ischemic liver was reperfused by opening the vascular clamp. Livers were collected 6 h later under pentobarbital anesthesia (80 mg/kg, i.p.) and SK was detected immunohistochemically. […] SK expression increased markedly after hepatic IR (FIG. 9 middle). Upregulation of SK occurred most overtly in hepatocytes in the midzonal regions of the liver lobule. […] Immunohistochemistry: Sections were deparaffinized in xylene, rehydrated in a series of graded alcohol concentrations and placed in phosphate buffered saline with 0.1% Tween-20. […] Appropriate peroxidase-conjugated secondary antibodies (DAKO Corp.) were then applied, followed by 3,3'-diaminobenzidine chromagen as the peroxidase substrate. A light counterstain of Meyer's hematoxylin was applied.

Test [2] concerns kidney ischemia-reperfusion in C57/Bl6 mice. In words: Ischemia-reperfusion of the kidney (mild model), BUN and creatinine. In kind it is in vivo. The settings on record: 50 mg/kg oral gavage. How it is done: ABC294640 reduces kidney damage following ischemia-reperfusion. Male C57/Bl6 mice (approximately 24 g) were first dosed with ABC294640 (50 mg/kg in 0.1 mL by oral gavage) or vehicle (0.1 mL in 0.375% Tween 80 in Phosphate-Buffered Saline), immediately followed by intraperitoneal injection of ketamine/xylazine for anesthesia. The procedure was performed on a heated surface using homeothermic pads to ensure the maintenance of animal body temperature. A midline incision was made and the two renal pedicles were located and clamped for 22 minutes or 25 minutes as indicated. Total blockage of the renal pedicle and thus artery was confirmed after several minutes as the kidney were seen to be dark red to purple in color, assuring correct clamp placement. […] One milliliter of pre-warmed (37° C.) sterile saline was instilled into the peritoneum at the time of closing using sutures for musculature and wound clips for the skin incision. Animals were maintained on homeothermic pads until awakening from anesthesia and post-operatively assessed for health.
Levels of blood urea nitrogen (BUN) were determined as an indicator of renal function. […] Therefore, the SK inhibitor substantially improves kidney function that persists for at least 3 days after drug administration.
ABC294640 reduces kidney damage following ischemia-reperfusion. Kidney ischemia-reperfusion was repeated as in Example 1, except that the duration of bilateral pedicle clamping was 25 minutes and animals were sacrificed 24 hours after surgery.
Ischemia-reperfusion of the kidney (mild model): Male C57/Bl6 mice (approximately 24 g) were first dosed with ABC294640 (50 mg/kg in 0.1 ml by oral gavage) or vehicle (0.1 ml in 0.375% Tween 80 in Phosphate-Buffered Saline), immediately followed by intraperitoneal injection of ketamine/xylazine for anesthesia. The procedure was performed on a heated surface using homeothermic pads to ensure the maintenance of animal body temperature. […] Animals were maintained on homethermic pads until awakening from anesthesia and post-operatively assessed for health.

The test system of test [3] is kidney damage after severe ischemia-reperfusion. Nature of the test: Kidney histology (H&E) after severe kidney IR. In kind it is in vivo, mice. The settings on record: 4 and 48 hours post ischemia and reperfusion. How it is done:
Kidneys from the animals described with respect to FIG. 4 were sectioned and stained with H&E for histological evaluation. […] Kidney sections were quantitatively scored on a scale of 1 to 3 for five parameters (tubule cell swelling, tubular dilatation, edema, epithelial necrosis and tubular casts) that were added to generate a total score (FIG. 6).

Setting [4] is: 25 minutes bilateral clamping, 24 hours after reperfusion.

For `O=C(NCc1ccncc1)C12CC3CC(C1)CC(c1ccc(Cl)cc1)(C3)C2` [ABC294640, 3-(4-chlorophenyl)-N-(pyridin-4-ylmethyl)adamantane-1-carboxamide], the “upregulation of SK after hepatic IR” value in test [1] is “prevents upregulation; also recorded: attenuated upregulation”. In test [2] (setting [4]), the “BUN levels vs vehicle” value is on record as “significantly lower; also recorded: substantially lower” and the “creatinine levels vs vehicle” value is on record as “significantly lower; also recorded: substantially lower”. Further, the “BUN levels vs vehicle” value in test [2] (bilateral renal pedicle clamping, 72 hours after reperfusion) is “significantly lower”. Also, the “kidney histological damage vs vehicle” value in test [3] is reported as “protects against microscopic damage; also recorded: much less damage”.
